Common to all, as to format: cell-based, human
Test [1] deals with heterozygous G2019S LRRK2 PD patient-derived LCLs. The experiment in a line: Mito DNADX mtDNA damage and mtDNA copy number in G2019S LRRK2 PD patient-derived LCLs. Particulars: 10 and 100 nM, 2 h. How it is done: PD patient G2019S LRRK2 (n = 2) and healthy subject control (n = 2)-derived LCLs were obtained from the NINDS Coriell biorepository (ID numbers are ND00011, ND00264, ND01618, ND02559). There was not a statistical difference in the ages between the PD patient and healthy control subjects (p = 0.92). LCLs were cultured at 37 °C, 5% CO2, in RPMI-1640 (Sigma-Aldrich, R8758), 15% heat-inactivated fetal bovine serum (VWR Seradigm, 97068-091) and 0.5% Penicillin/Streptomycin (Corning, 30-002-CI). […] All in vitro experiments were repeated at least three times from distinct samples.
(§1) The tool compound EB-42168 was discovered as part of a small molecule discovery program aimed at identifying LRRK2 kinase inhibitors that are selective for the pathogenic G2019S LRRK2 variant. […] MLi‐2 inhibits WT LRRK2 ~1000‐fold more than EB‐42168[20].
(§2) Cells were collected and the nuclei and mitochondria were isolated as previously described. DNA was extracted from LRRK2-WT and G2019S-LRRK2 cells, and wild-type and LRRK2^G2019S/G2019S KI cells using QuickGene DNA Whole Blood Kit L (Autogen, fk-dbl). PD patient LRRK2 G2019S and healthy subject control-derived LCL DNA was extracted using the QuickGene DNA Tissue Kit L (Autogen, fk-dtl), utilizing a semi-automated system (Autogen, QuickGene-610L). For the Autogen system, the pellet was resuspended in 2 ml of 1X PBS, and the standard manufacturer’s protocol was conducted as if the cell suspension was whole blood. DNA was eluted with EDTA-free buffer, and quality was assessed using a Spectradrop microvolume microplate (Molecular Devices). Double-stranded DNA was quantified using Quant-iT Picogreen dsDNA assay (Thermo Fisher) as previously described.
DNA damage in the mitochondrial genome was measured utilizing Mito DNADX, an assay that we recently developed and described, currently the most robust way of measuring damage in mtDNA[39],[82]. The Mito DNADX assay combines optimized polymerase chain reaction (PCR) parameters using a high-fidelity DNA polymerase and a fluorescent dye that binds to double-stranded DNA that permits the real-time quantification of DNA damage in distinct loci in a 96-well platform. The premise of the Mito DNADX assay involves amplification of a specific mitochondrial PCR fragment in which less PCR product will be amplified when mtDNA damage or lesions block the ability of the DNA polymerase to replicate. As such, mtDNA damage or mtDNA repair intermediates that slow down or impair DNA polymerase progression will be detected. […] Briefly, 15 ng of DNA was used to amplify long or short amplicons of the mitochondrial genome (as determined by primer sets). […] Average lesion frequency is calculated as described. […] Each biological DNA sample was analyzed in technical triplicate. […]

Test [2] relates to LRRK2^G2019S/G2019S KI HEK293 cells. The experiment in a line: Mitophagy (Mtphagy dye / Lyso dye live cell imaging) in LRRK2 G2019S/G2019S KI HEK293 cells. Conditions: 100 nM 2 h pre-treatment; for basal levels of mitophagy: Mitophagy dye intensity or co-localization; for FCCP-stimulated mitophagy defect: then 20 μM FCCP 3 h. How it is done: (§3) Thirty-five mm cell culture dishes (Cellvis, D35-20-1.5-N) were coated with poly-D-lysine (Sigma-Aldrich, P7280-5MG) for 5 min, washed with cell culture grade water (Sigma-Aldrich, W3500), and allowed to dry for at least 1 h before plating. LRRK2^G2019S/G2019S KI HEK293 and wild-type cells were passaged as described above and plated at 300,000 cells per well on poly-D-lysine-coated dishes. […] Following this, cells were washed three times with serum-free medium, and a working solution of Mtphagy dye (Dojindo, MD-01) was prepared in serum-free medium according to manufacturer protocols. Cultures were incubated with Mtphagy dye for 30 min, followed by three washes with serum-free medium. Complete medium was used to prepare a 20 µM FCCP (Abcam, ab120081) or DMSO control treatment solution, which was used to treat cells for 3 h. Following treatment, cells were then washed 3 times with serum-free medium, and a working solution of Lyso dye (Dojindo, MD-01) was prepared in serum-free medium and used to treat cells for 30 min. Complete medium lacking phenol red was prepared for use in confocal live cell imaging by combining phenol red-free DMEM/F-12 (Fisher Scientific, 21-041-025), FBS (VWR, 97068-085), and penicillin-streptomycin (VWR, 45000-652). Following Lyso dye treatment, cultures were washed three times with phenol red-free medium, followed by adding fresh phenol red-free medium to cell culture dishes. MitoBright LT Deep Red (Dojindo, MT12-12) was diluted in growth medium to prepare a 0.1 μmol/l solution and was used to treat cells for 15 min for total mitochondrial staining. Live cell imaging (5% CO2, 37 °C) was performed using a Zeiss LSM 880 Confocal Laser Scanning Microscope with Zen Black software. On average, ~70 cells were analyzed for each condition per each experimental replicate.
(§4) Following imaging, files were processed using Zen Blue software, and TIFF files of each channel were obtained for analysis. ImageJ was used to obtain readouts for image analysis. All images were converted to 8-bit format. For each respective image, the Lyso dye channel was used to create a mask delineating each lysosomal focus as a region of interest (ROI). Thresholding parameters were adjusted between biological replicates as required to ensure that the Lyso dye ROI encompassed all lysosome foci appropriately, and this was used to create a mask. This was then applied to the corresponding Mtphagy dye channel image, allowing collection of Mtphgy fluorescence intensity readouts for each lysosomal focus. Outliers were removed using Prism software (GraphPad) with the coefficient of removal set to 0.2%. Data was thresholded to exclude lysosomes not containing mitochondria by excluding fluorescence values with intensities equal to or below background levels. The number of ROIs remaining after thresholding was used to quantify lysosomes containing fluorescing mitochondria (mitolysosomes). Fluorescence intensity values for all mitolysosomes per condition per biological replicate were averaged to obtain a value of mitophagy fluorescence intensity per mitolysosome. For each replicate, all values of average mitolysosome fluorescence intensity were normalized to wild-type (vehicle treated) levels for the given replicate.

Test [3] deals with WT-LRRK2 expressing HEK293 cells. Description: Mito DNADX mtDNA damage and mtDNA copy number in WT-LRRK2 overexpressing HEK293 cells. Conditions: 10 nM-1 μM, 2 h. How it is done: Cells were plated at a density of 0.3 × 10^6 cells in a 6-well dish and treated at ~40–50% confluency. At the time of harvest, cells were collected and either protein collected or DNA extracted as described below.
as §1, §2
DNA damage in the mitochondrial genome was measured utilizing Mito DNADX, an assay that we recently developed and described, currently the most robust way of measuring damage in mtDNA[39],[82]. The Mito DNADX assay combines optimized polymerase chain reaction (PCR) parameters using a high-fidelity DNA polymerase and a fluorescent dye that binds to double-stranded DNA that permits the real-time quantification of DNA damage in distinct loci in a 96-well platform. The premise of the Mito DNADX assay involves amplification of a specific mitochondrial PCR fragment in which less PCR product will be amplified when mtDNA damage or lesions block the ability of the DNA polymerase to replicate. As such, mtDNA damage or mtDNA repair intermediates that slow down or impair DNA polymerase progression will be detected. Therefore, equal amounts of sample DNA amplified under identical conditions can be directly compared across conditions to determine the mtDNA lesion frequency. Mitochondrial DNA lesion frequency was performed as previously described. Briefly, 15 ng of DNA was used to amplify long or short amplicons of the mitochondrial genome (as determined by primer sets). The amount of amplification is directly proportional to the number of undamaged DNA templates. Average lesion frequency is calculated as described. […] Each biological DNA sample was analyzed in technical triplicate. […]

The test system of another test is wild-type HEK293 cells. The experiment in a line: Mitophagy (Mtphagy dye / Lyso dye live cell imaging) in wild-type HEK293 cells. Particulars: 100 nM 2 h pre-treatment; for basal levels of mitophagy: Mitophagy dye intensity or co-localization; for FCCP-stimulated mitophagy: then 20 μM FCCP 3 h. How it is done:
as §3, §4

The structures appear in SMILES notation. “Also recorded” adds a separate entry of the source.

On to `CC1=C(C(=O)Nc2ccc3[nH]nc(-c4ccnc(N5CCOCC5)c4)c3c2)C(C)(C)n2nnnc2N1C` [EB-42168], for which, in test [1], the mtDNA copy number entry is listed as “No differences” and the mtDNA damage result is listed as “restored to control levels”. Besides, in test [2], the “basal levels of mitophagy” value is “did not impact” and the FCCP-stimulated mitophagy defect result is “failed to rescue”. Besides, in test [3], the mtDNA copy number result is “not different; also recorded: did not change” and the mtDNA damage result is “No effect”. Also, in the test on wild-type HEK293 cells, the “basal levels of mitophagy” value is listed as “did not impact” and the FCCP-stimulated mitophagy entry is reported as “blocked”.
Turning to `C[C@@H]1CN(c2cc(-c3n[nH]c4ccc(OC5(C)CC5)cc34)ncn2)C[C@H](C)O1` [MLi-2, reference compound], in test [1], the mtDNA copy number entry is reported as “No differences” and the mtDNA damage entry is reported as “reversed mtDNA damage”. Further, in test [2], the “basal levels of mitophagy” value is “did not impact” and the FCCP-stimulated mitophagy defect result was “failed to rescue”. In test [3], the mtDNA copy number entry is “no effect; also recorded: unaltered” and the mtDNA damage entry is on record as “trend toward an increase in mtDNA damage”. Moreover, in the test with wild-type HEK293 cells, the “basal levels of mitophagy” value is “did not impact” and the FCCP-stimulated mitophagy entry was “blocked”.
